Experimental data as given in patent publication US20250163038A1, “CBL-B MODULATORS AND USES THEREOF” (Nimbus Clio, Inc., priority 2021, published 2025).

How the values were obtained:
[1] = molecular target: Recombinant human Cbl-b (aa 36-427) (Homo sapiens, UniProt Q13191); test: Cbl-b Biochemical Assay (TR-FRET); conditions: read-out: TR-FRET hCbl-b IC50
[2] = molecular target: T1, Recombinant human c-Cbl (aa 47-435) (Homo sapiens, UniProt P22681); test: c-Cbl Biochemical Assay (TR-FRET); conditions: hc-Cbl Biochemical Assay (TR-FRET); read-out: TR-FRET hcCbl IC50
T1 sequence (P22681 47-435): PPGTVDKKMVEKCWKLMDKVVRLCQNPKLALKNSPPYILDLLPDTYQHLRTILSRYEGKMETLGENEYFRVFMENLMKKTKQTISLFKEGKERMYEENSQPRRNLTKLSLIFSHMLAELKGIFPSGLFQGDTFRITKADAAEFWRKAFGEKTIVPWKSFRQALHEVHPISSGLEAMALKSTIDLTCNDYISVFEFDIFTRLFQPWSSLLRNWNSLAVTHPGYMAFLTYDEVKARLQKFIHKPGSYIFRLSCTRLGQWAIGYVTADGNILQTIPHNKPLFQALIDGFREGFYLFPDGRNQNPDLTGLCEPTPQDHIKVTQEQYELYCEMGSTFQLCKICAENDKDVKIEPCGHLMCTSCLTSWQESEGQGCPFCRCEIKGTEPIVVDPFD

Sequence of Recombinant human Cbl-b (aa 36-427) (Q13191 36-427): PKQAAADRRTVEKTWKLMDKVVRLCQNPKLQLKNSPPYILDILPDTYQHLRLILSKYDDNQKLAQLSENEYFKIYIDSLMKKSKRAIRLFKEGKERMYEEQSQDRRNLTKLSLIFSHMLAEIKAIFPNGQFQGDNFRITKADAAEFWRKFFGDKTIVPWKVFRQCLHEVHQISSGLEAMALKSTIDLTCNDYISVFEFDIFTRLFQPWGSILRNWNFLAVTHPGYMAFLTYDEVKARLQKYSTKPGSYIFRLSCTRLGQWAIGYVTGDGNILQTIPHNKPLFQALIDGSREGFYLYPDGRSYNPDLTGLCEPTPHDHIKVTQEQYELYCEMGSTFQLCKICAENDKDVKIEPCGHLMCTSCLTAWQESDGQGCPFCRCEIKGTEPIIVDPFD

| SMILES | IC50 [1] | IC50 [2] |
| --- | --- | --- |
| COC(=O)c1cc(C(F)(F)F)c2oc(-c3cccc(-c4ccccc4-c4nncn4C)c3)nc2c1 [Example G-1, Methyl 2-(2′-(4-methyl-4H-1,2,4-triazol-3-yl)-[1,1′-biphenyl]-3-yl)-7-(trifluoromethyl)benzo[d]oxazole-5-carboxylate] | 10 to 50 µM | 10 to 50 µM |
| Cn1cnnc1-c1cc(F)ccc1-c1cccc(-c2nc3cc(C(=O)N[C@@H]4CCC[C@@H]4O)cc(C(F)(F)F)c3o2)c1 [DB-2, 2-(4′-Fluoro-2′-(4-methyl-4H-1,2,4-triazol-3-yl)-[1,1′-biphenyl]-3-yl)-N-((1R,2S)-2-hydroxycyclopentyl)-7-(trifluoromethyl)benzo[d]oxazole-5-carboxamide] | 0.2 to 1 µM | 1 to 10 µM |
| Cn1cnnc1CC1(c2cccc(-c3nc4cc(CN5CC[C@H](O)C5)cc(C(F)(F)F)c4[nH]3)c2)COC1 [ACL-1, (S)-1-((2-(3-(3-((4-Methyl-4H-1,2,4-triazol-3-yl)methyl)oxetan-3-yl)phenyl)-7-(trifluoromethyl)-1H-benzo[d]imidazol-5-yl)methyl)pyrrolidin-3-ol] | 0.2 to 1 µM | 1 to 10 µM |
| Cn1cnnc1CC1(c2cccc(-c3nc4cc(CN5CC[C@@H](O)C5)cc(C(F)(F)F)c4[nH]3)c2)COC1 [ACB-1, (R)-1-((2-(3-(3-((4-Methyl-4H-1,2,4-triazol-3-yl)methyl)oxetan-3-yl)phenyl)-7-(trifluoromethyl)-1H-benzo[d]imidazol-5-yl)methyl)pyrrolidin-3-ol] | 0.2 to 1 µM | 10 to 50 µM |
| Cn1cnnc1-c1cnn(C)c1-c1cccc(-c2nc3cc(CN[C@@H]4CCC[C@H]4O)cc(C(F)(F)F)c3o2)c1 [AAV-2, (1R,2R)-2-(((2-(3-(1-Methyl-4-(4-methyl-4H-1,2,4-triazol-3-yl)-1H-pyrazol-5-yl)phenyl)-7-(trifluoromethyl)benzo[d]oxazol-5-yl)methyl)amino)cyclopentan-1-ol] | 1 to 10 µM | 10 to 50 µM |
| Cn1cnnc1CC1(c2cccc(-c3nc4cc(CN5CCCC5)cc(C(F)(F)F)c4[nH]3)c2)COC1 [ABL-1, 2-(3-(3-((4-Methyl-4H-1,2,4-triazol-3-yl)methyl)oxetan-3-yl)phenyl)-5-(pyrrolidin-1-ylmethyl)-7-(trifluoromethyl)-1H-benzo[d]imidazole] | 0.2 to 1 µM | 10 to 50 µM |
| Cn1cnnc1-c1ccccc1-c1cccc(-c2nc3cc(CO)cc(C(F)(F)F)c3o2)c1 [Example F-5, (2-(2′-(4-Methyl-4H-1,2,4-triazol-3-yl)-[1,1′-biphenyl]-3-yl)-7-(trifluoromethyl)benzo[d]oxazol-5-yl)methanol] | 1 to 10 µM | 10 to 50 µM |
| Cn1cnnc1-c1cc(F)ccc1-c1cccc(-c2nc3ccc(CO)cc3o2)c1 [DC-3, (2-(4′-Fluoro-2′-(4-methyl-4H-1,2,4-triazol-3-yl)-[1,1′-biphenyl]-3-yl)benzo[d]oxazol-6-yl)methanol] | 1 to 10 µM | 10 to 50 µM |
| Cn1cnnc1-c1cc(F)ccc1-c1cc(-c2nc3cc(CO)ccc3[nH]2)nc(C2CC2)c1 [AEE-1, (2-(6-Cyclopropyl-4-(4-fluoro-2-(4-methyl-4H-1,2,4-triazol-3-yl)phenyl)pyridin-2-yl)-1H-benzo[d]imidazol-5-yl)methanol] | 1 to 10 µM | 1 to 10 µM |
| Cn1cnnc1CC1(c2cccc(-c3nc4cccc(C(F)(F)F)c4o3)c2)COC1 [ACO-1, 2-(3-(3-((4-Methyl-4H-1,2,4-triazol-3-yl)methyl)oxetan-3-yl)phenyl)-7-(trifluoromethyl)benzo[d]oxazole] | 0.2 to 1 µM | 10 to 50 µM |
| CC(Cc1nncn1C)c1cccc(-c2nc3ccc(OCCN(C)C)c(C(F)(F)F)c3[nH]2)c1 (stereo not drawn) [AW-4, N,N-dimethyl-2-((2-(3-(1-(4-methyl-4H-1,2,4-triazol-3-yl)propan-2-yl)phenyl)-7-(trifluoromethyl)-1H-benzo[d]imidazol-6-yl)oxy)ethan-1-amine] | 10 to 50 µM | 10 to 50 µM |
| Cn1cnnc1CC1(c2cccc(-c3nc4cc(C(=O)N5CCCC5)cc(C(F)(F)F)c4[nH]3)c2)COC1 [ABH-4, (2-(3-(3-((4-Methyl-4H-1,2,4-triazol-3-yl)methyl)oxetan-3-yl)phenyl)-7-(trifluoromethyl)-1H-benzo[d]imidazol-5-yl)(pyrrolidin-1-yl)methanone] | 10 to 50 µM | 10 to 50 µM |
| Cn1cnnc1-c1ccccc1-c1cccc(-c2nc3cccc(C(F)(F)F)c3o2)c1 [Example K-2, 2-(2′-(4-Methyl-4H-1,2,4-triazol-3-yl)-[1,1′-biphenyl]-3-yl)-7-(trifluoromethyl)benzo[d]oxazole] | 10 to 50 µM | 10 to 50 µM |
| C[C@@H]1CCCN(Cc2cc(C(F)(F)F)c3oc(-c4cccc(-c5ccccc5-c5nncn5C)c4)nc3c2)C1 [Example L-4, (R)-2-(2′-(4-Methyl-4H-1,2,4-triazol-3-yl)-[1,1′-biphenyl]-3-yl)-5-((3-methylpiperidin-1-yl)methyl)-7-(trifluoromethyl)benzo[d]oxazole] | 1 to 10 µM | 10 to 50 µM |
| Cn1cnnc1CC1(c2cccc(-c3cc(C(F)(F)F)c[nH]c3=O)c2)COC1 [ABO-1, 3-(3-(3-((4-Methyl-4H-1,2,4-triazol-3-yl)methyl)oxetan-3-yl)phenyl)-5-(trifluoromethyl)pyridin-2(1H)-one] | 0.2 to 1 µM | 10 to 50 µM |
| CCNc1cc(-c2ccc(F)cc2-c2nncn2C)cc(-c2nc3cccc(C(F)(F)F)c3o2)n1 [AEJ-4, N-Ethyl-4-[4-fluoro-2-(4-methyl-1,2,4-triazol-3-yl)phenyl]-6-[7-(trifluoromethyl)-1,3-benzoxazol-2-yl]pyridin-2-amine] | 0.2 to 1 µM | 1 to 10 µM |
| Cn1cnnc1-c1ccccc1-c1cccc(-c2cc(C(F)(F)F)c[nH]c2=O)c1 [ABV-1, 3-(2′-(4-Methyl-4H-1,2,4-triazol-3-yl)-[1,1′-biphenyl]-3-yl)-5-(trifluoromethyl)pyridin-2(1H)-one] | 10 to 50 µM | 10 to 50 µM |
| CC(=O)c1cc(C(F)(F)F)c2oc(-c3cccc(-c4ccc(F)cc4-c4nncn4C)c3)nc2c1 [DK-1, 1-(2-(4′-Fluoro-2′-(4-methyl-4H-1,2,4-triazol-3-yl)-[1,1′-biphenyl]-3-yl)-7-(trifluoromethyl)benzo[d]oxazol-5-yl)ethan-1-one] | < 0.2 µM | 1 to 10 µM |
| Cn1cnnc1-c1cnn(C)c1-c1cc(Cl)nc(-c2cc(C(F)(F)F)c[nH]c2=O)c1 [ACR-3, 6-Chloro-4-(1-methyl-4-(4-methyl-4H-1,2,4-triazol-3-yl)-1H-pyrazol-5-yl)-5′-(trifluoromethyl)-[2,3′-bipyridin]-2′(1′H)-one] | 10 to 50 µM | 10 to 50 µM |
| CC(Cc1nncn1C)c1cccc(-c2nc3ccc(OCCN4CCCC4)c(C(F)(F)F)c3[nH]2)c1 (stereo not drawn) [AX-3, 2-(3-(1-(4-Methyl-4H-1,2,4-triazol-3-yl)propan-2-yl)phenyl)-6-(2-(pyrrolidin-1-yl)ethoxy)-7-(trifluoromethyl)-1H-benzo[d]imidazole] | 10 to 50 µM | 10 to 50 µM |
| Cn1cnnc1-c1ccccc1-c1cccc(-c2nc3cc(C(C)(C)O)cc(C(F)(F)F)c3o2)c1 [Example J-1, 2-(2-(2′-(4-Methyl-4H-1,2,4-triazol-3-yl)-[1,1′-biphenyl]-3-yl)-7-(trifluoromethyl)benzo[d]oxazol-5-yl)propan-2-ol] | 10 to 50 µM | 10 to 50 µM |
